Results from patent US9307765B2, “Selective weed control using D-napropamide” (UPL Limited, priority 2013, dated 2016).

Columns and labels:
Stellaria media = assay: Pre-emergence glasshouse pot study, seedling emergence and growth (OECD guideline); format: in vivo; details: for Mean Final Foliar Fresh Weights Expressed as Percentage of Untreated Controls / Mean Final Foliar Fresh Weights: Stellaria media; for Mean Final Foliar Fresh Weights: 21 days after 50% emergence, untreated 1.44
Procedure: (§1) A study was carried out to determine the relative biological activity of the D and L isomers of Napropamide when applied pre-emergence to one monocotyledon and one dicotyledon species. Napropamide, containing 450 grammes active substance per liter (g a.s./L) formulated as a suspension concentrate and the D-isomer of Napropamide (1000 g a.s./L) were applied at a range of concentrations from 0.1575 to 1.26 kilograms of active substance per hectare (kg a.s/Ha).
(§2) EC50 values in kg a.s./Ha were calculated from the dose response data using final foliar fresh weight data for each species and was used to determine the relative biological activity of the D and L isomers of Napropamide. The methodology was based on the OECD guideline […], according to the revision of July 2006 for seedling emergence and growth. The study was conducted to GLP standards.
(§3) Seeds were sown directly into non-porous plastic pots containing the following mix of soil: 10 L of sterile loam+4 L of coarse grit (washed quartztite, nominal 4 mm)+10 L of sand. This soil mix was characterized as a sandy loam with an organic carbon content of 1.5% and pH of 7.2. Details of the plant species, number of seeds per pot and pot size are shown below. All seeds were sown 1-2 cm deep.
(§4) The highest concentration of Napropamide was prepared by measuring a calculated volume by weight and diluting with tap water to the full required volume. Lower concentrations were prepared by serial dilution with water. D-Napropamide was prepared by dissolving the calculated weight in acetone and adding water to give the full required volume in 50:50 acetone+water. Lower concentrations were prepared by serial dilution with 50:50 acetone+water. D-Napropamide dissolved completely.
(§5) The sprayer was calibrated within 24 hours prior to application by weight of 15 applications of water to six 86 mm ID petri dishes. The total weight of water over a known area enabled a simple calculation giving the volume rate to be made. The volume rate achieved was within the range specified in the study plan (200 L/Ha±10%).
(§6) Replication was 5 pots per treatment for each plant species. After application, pots were placed on the bench in glasshouse in randomized blocks. Plants were assessed for emergence, mortality and visual injury (expressed as a percentage of the untreated control: 0%=no injury, 1-39%=slight injury, 40-69%=moderate injury, 70-99%=severe injury and 100%=all plants dead) at 14 and 21 days after 50% emergence in the untreated controls. Fresh weights (biomass above soil level) were also recorded 21 days after 50% emergence in the untreated controls. Plants were fully turgid at the time of harvest.
(§7) Assessment data was recorded on pro-forma sheets and entered into Gylling ARM 7 software. EC50 values were calculated using audited means data from the final assessments (21 day). Gylling ARM 7.0 software used a simple probit—maximum likelihood estimation method with 99% confidence level. The EC50 values generated were then visually checked against the means data table to verify they appeared correct.

Poa annua = assay: as above; format: in vivo; details: for Mean Final Foliar Fresh Weights Expressed as Percentage of Untreated Controls / Mean Final Foliar Fresh Weights: Poa annua; for Mean Final Foliar Fresh Weights: 21 days after 50% emergence, untreated 0.90
Procedure: as §1, §2, §3, §4, §5, §6, §7

[1] = rate 0.1575 kg/Ha pre-emergence
[2] = dicotyledonous weeds (Stellaria media EC50)
[3] = monocotyledonous weeds (Poa annua EC50)

**Q.** With CCN(CC)C(=O)[C@@H](C)Oc1cccc2ccccc12 [D-Napropamide, D-(−)-N,N-diethyl-2-(α-naphthoxy)propionamide] as the molecule, how does the “EC50 based on the final fresh weights” value (Stellaria media; Stellaria media (dicot), 21 day assessment, probit) read?
**A.** The value was 0.054 kg/Ha.

**Q.** What about the “Mean Final Foliar Fresh Weights Expressed as Percentage of Untreated Controls” value (Stellaria media; rate 0.1575 kg/Ha) of the same molecule?
**A.** Its value is 35%.

**Q.** What about the “Mean Final Foliar Fresh Weights” value (Stellaria media; [1]) of the same molecule?
**A.** The value was 0.498 g.

**Q.** What about the “Mean Final Foliar Fresh Weights Expressed as Percentage of Untreated Controls” value (Stellaria media; rate 0.315 kg/Ha) of the same molecule?
**A.** The value was 14%.

**Q.** And the “Mean Final Foliar Fresh Weights” value (Stellaria media; rate 0.315 kg/Ha pre-emergence)?
**A.** The value was 0.198 g.

**Q.** What about the “Mean Final Foliar Fresh Weights Expressed as Percentage of Untreated Controls” value (Stellaria media; rate 0.630 kg/Ha) of the same molecule?
**A.** The value was 12%.

**Q.** And the “Mean Final Foliar Fresh Weights” value (Stellaria media; rate 0.63 kg/Ha pre-emergence)?
**A.** The value was 0.17 g.

**Q.** What about the “times more active than L-Napropamide” value (Stellaria media; [2]) of the same molecule?
**A.** Its value is about 23.33 times.

**Q.** And the “times more active than racemic Napropamide” value (Stellaria media; [2])?
**A.** The value was “about 4.07 times”.

**Q.** And the “EC50 based on the final fresh weights” value (Poa annua; Poa annua (monocot), 21 day assessment, probit)?
**A.** The value was 0.44 kg/Ha.

**Q.** What about the “Mean Final Foliar Fresh Weights Expressed as Percentage of Untreated Controls” value (Poa annua; rate 0.1575 kg/Ha) of the same molecule?
**A.** The value was 100%.

**Q.** And the “Mean Final Foliar Fresh Weights” value (Poa annua; [1])?
**A.** The value was 0.93 g.

**Q.** What about the “Mean Final Foliar Fresh Weights Expressed as Percentage of Untreated Controls” value (Poa annua; rate 0.315 kg/Ha) of the same molecule?
**A.** The value was 71%.

**Q.** And the “Mean Final Foliar Fresh Weights” value (Poa annua; rate 0.315 kg/Ha pre-emergence)?
**A.** The value was 0.64 g.

**Q.** And the “Mean Final Foliar Fresh Weights Expressed as Percentage of Untreated Controls” value (Poa annua; rate 0.630 kg/Ha)?
**A.** The value was 50%.

**Q.** And the “Mean Final Foliar Fresh Weights” value (Poa annua; rate 0.63 kg/Ha pre-emergence)?
**A.** The value was 0.45 g.

**Q.** What about the “more active than L-Napropamide” value (Poa annua; [3]) of the same molecule?
**A.** The value was about 2.86 times.

**Q.** What about the “times more active than racemic Napropamide” value (Poa annua; [3]) of the same molecule?
**A.** Its value is “about 1.63 times”.
